IC50 and GI50 data for 17 molecules are collected here from patent publication US7820646B2, “Cyclized derivatives as Eg-5 inhibitors” (Novartis Vaccines and Diagnostics, Inc., priority 2007, dated 2010).

Test [1] addresses T1, motor domain of human KSP (Eg 5, KNSL1) (Homo sapiens, UniProt P52732).
T1 construct: KSP motor protein (i.e., the KSP motor domain); made in house
T1 sequence (P52732 18-359 limits assumed): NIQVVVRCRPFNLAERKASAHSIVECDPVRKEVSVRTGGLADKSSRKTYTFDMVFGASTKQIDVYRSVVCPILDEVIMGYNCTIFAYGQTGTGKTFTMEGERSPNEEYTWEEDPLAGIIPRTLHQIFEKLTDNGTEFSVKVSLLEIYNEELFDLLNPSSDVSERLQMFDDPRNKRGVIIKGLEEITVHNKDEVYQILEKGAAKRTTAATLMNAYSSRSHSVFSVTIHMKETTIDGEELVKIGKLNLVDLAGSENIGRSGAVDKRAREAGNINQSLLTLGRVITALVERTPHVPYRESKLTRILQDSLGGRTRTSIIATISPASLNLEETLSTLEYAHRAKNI
The experiment in a line: Assay for determining KSP activity (microtubule-stimulated ATPase, Biomol Green). To be noted: KSP motor domain 45 nM, microtubules 35 μg/mL, 1 hour at RT; read-out: Biochemical Activity IC50. From the text:
This example provides a representative in vitro assay for determining KSP activity in vitro. Purified microtubules obtained from bovine brain were purchased from Cytoskeleton Inc. (Denver, Colo., USA). The motor domain of human KSP (Eg 5, KNSL1) was cloned, expressed, and purified to greater than 95% homogeneity. Biomol Green was purchased from Affinity Research Products Ltd. (Matford Court, Exeter, Devon, United Kingdom). Microtubules and KSP motor protein (i.e., the KSP motor domain) were diluted in assay buffer (20 mM Tris-HCl (pH 7.5), 1 mM MgCl2, 10 mM DTT and 0.25 mg/mL BSA) to a final concentration of 35 μg/mL microtubules and 45 nM KSP. The microtubule/KSP mixture was then pre-incubated at 37° C. for 10 min to promote the binding of KSP to microtubules.
To each well of the testing plate (384-well plate) containing 1.25 μL of inhibitor or test compound in DMSO (or DMSO only in the case of controls) were added 25 μL of ATP solution (ATP diluted to a concentration of 300 μM in assay buffer) and 25 μL of the above-described microtubule/KSP solution. The plates were incubated at RT for 1 hour. Following incubation, 65 μL of Biomol Green (a malachite green-based dye that detects the release of inorganic phosphate) was added to each well. The plates were incubated for an additional 5-10 minutes then the absorbance at 630 nm was determined using a Victor II plate reader. The amount of absorbance at 630 nm corresponded to the amount of KSP activity in the samples. The IC50 of each inhibitor or test compound was then determined based on the decrease in absorbance at 630 nm at each concentration, via nonlinear regression using either XLFit for Excel or Prism data analysis software by GraphPad Software Inc.

In test [2] the test system is parental cell line. The experiment in a line: Inhibition of cellular proliferation in tumor cell lines (CellTiter Glo), KB3.1. In kind it is cell-based. To be noted: Homo sapiens, KB 3-1; KB3.1, 72 hours of continuous compound exposure; read-out: Cell Base Activity GI50 KB3.1. As for the experimental part: (§1) Cells are plated in 96-well plates at densities of about 500 cells per well of a 96-well plate and are allowed to grow for 24 hours. The cells are then treated with various concentrations of compounds for 72 hours. Then, 100 μl of CellTiter Glo is added. CellTiter Glo is a tetrazolium-based assay using the reagent 3-(4,5-dimethylthiazol-2-yl) 5-(3-carboxymethoxyphenyl)-2-(4-sulfophenyl)-2H-tetrazolium (MTS) (U.S. Pat. No. 5,185,450) (see Promega product catalog #G3580, CellTiter 96 Aqueous One Solution Cell Proliferation Assay). The cells are then incubated in the dark for 30 minutes. The amount of luminescence is determined for each well using a Walloc Trilux plate reader, which correlates with the number of cells per well. The number of viable cells in the wells that receive only DMSO (0.5%) serve as an indication of 0% inhibition, while wells without cells serve as 100% inhibition of cell growth. The compound concentration that results in a 50% growth inhibition (GI50) is determined graphically from sigmoidal dose-response curves of log-transformed dose values versus cell counts (percent of control) at 72 hours of continuous compound exposure.
(§2) The cell lines used are listed below.
(§3) The cell proliferation assay is performed as described above.

Test [3] has as its system HCT-15 colon carcinoma. The experiment in a line: Inhibition of cellular proliferation in tumor cell lines (CellTiter Glo), HCT-15. In kind it is cell-based. To be noted: Homo sapiens; HCT-15, 72 hours of continuous compound exposure; read-out: Cell Base Activity GI50 HCT-15. As for the experimental part: as §1, §2, §3
The test system of test [4] is KB8.5 (KB85 - p-glycoprotein associated multi-drug resistant cell line). Briefly: Inhibition of cellular proliferation in tumor cell lines (CellTiter Glo), KB8.5. Format: cell-based. To be noted: KB8.5, 72 hours of continuous compound exposure; read-out: Cell Base Activity GI50 KB8.5. As for the experimental part: as §1, §2, §3
A general note: Cellular ATP, detected with luciferase, serves as a proxy for viable cell number.

Test [5] has as its system HCT-116 colon carcinoma. The experiment in a line: Inhibition of cellular proliferation in tumor cell lines (CellTiter Glo), HCT-116. In kind it is cell-based. To be noted: Homo sapiens; HCT-116, 72 hours of continuous compound exposure; read-out: Cell Base Activity GI50 HCT-116. As for the experimental part: as §1, §2, §3

What is called IC50 is the concentration that gives 50% inhibition. On to `CC(C)[C@H](c1nc(-c2cccc(Cl)c2)cn1Cc1ccccc1)N1C[C@H](CCN)OCC1=O` [Compound 12, (6S)-6-(2-aminoethyl)-4-{(1R)-1-[1-benzyl-4-(3-chlorophenyl)-1H-imidazol-2-yl]-2-methylpropyl}morpholin-3-one], for which the half-maximal inhibitory concentration (IC50) in test [1] is more than 1000 nM.

As to `CC(C)[C@H](c1nc(-c2cccc(Cl)c2)cn1Cc1ccccc1)N1C[C@@H](CN)OCC1=O` [Compound 8, (6R)-6-(aminomethyl)-4-{(1R)-1-[1-benzyl-4-(3-chlorophenyl)-1H-imidazol-2-yl]-2-methylpropyl}morpholin-3-one], the IC50 in test [1] was more than 1000 nM.

For the molecule `CC(C)(C)[C@H](c1nc(-c2ccccc2)cn1Cc1ccccc1)N1C[C@H](F)CNCC1=O` [Compound 31, (6R)-1-[(1R)-1-(1-benzyl-4-phenyl-1H-imidazol-2-yl)-2,2-dimethylpropyl]-6-fluoro-1,4-diazepan-2-one], the half-inhibitory concentration (IC50) in test [1] lay in the range of 100 to 1000 nM.

Broadly, the GI50 is the concentration giving 50% growth inhibition. Regarding `CN1C(=O)C(=O)N([C@@H](c2nc(-c3ccccc3)cn2Cc2ccccc2)C(C)(C)C)C[C@H]1CN` [Compound 18, (5R)-5-(aminomethyl)-1-[(1R)-1-(1-benzyl-4-phenyl-1H-imidazol-2-yl)-2,2-dimethylpropyl]-4-methylpiperazine-2,3-dione], the GI50 was 100 to 1000 nM in test [2], 100 to 1000 nM in test [3], more than 1000 nM in test [4] and 100 to 1000 nM in test [5]. In addition, in test [1], the IC50 was not above 100 nM.

In the case of `CC(C)(C)[C@H](c1nc(-c2ccccc2)cn1Cc1ccccc1)N1C[C@H](CCN)OCC1=O` [Compound 11, (6S)-6-(2-aminoethyl)-4-[(1R)-1-(1-benzyl-4-phenyl-1H-imidazol-2-yl)-2,2-dimethylpropyl]morpholin-3-one], the half-inhibitory concentration (IC50) in test [1] is 100 to 1000 nM.

Take `CC(C)(C)[C@H](c1nc(-c2ccccc2)cn1Cc1ccccc1)N1C[C@@H](CO)NCCC1=O` [Compound 19, (2S)-4-[(1R)-1-(1-benzyl-4-phenyl-1H-imidazol-2-yl)-2,2-dimethylpropyl]-2-(hydroxymethyl)-1,4-diazepan-5-one]: the 50% growth inhibitory concentration (GI50) in test [2] and in test [4] was more than 1000 nM each time. In addition, in test [1], the IC50 was 100 to 1000 nM.

As for `CC(C)(C)[C@H](c1nc(-c2ccccc2)cn1Cc1ccccc1)N1C[C@@H](CN)CNC(=O)C1=O` [Compound 30, (6S)-6-(aminomethyl)-1-[(1R)-1-(1-benzyl-4-phenyl-1H-imidazol-2-yl)-2,2-dimethylpropyl]-1,4-diazepane-2,3-dione], in test [1], the IC50 was not above 100 nM.

Consider `CC(C)(C)[C@H](c1nc(-c2ccccc2)cn1Cc1ccccc1)N1C[C@@H](CN)NC(=O)C1=O` [Compound 16, (5R)-5-(aminomethyl)-1-[(1R)-1-(1-benzyl-4-phenyl-1H-imidazol-2-yl)-2,2-dimethylpropyl]piperazine-2,3-dione], for which the GI50 in test [2] was 100 to 1000 nM; in test [3], more than 1000 nM; in test [4], more than 1000 nM; in test [5] it was 100 to 1000 nM. In addition, the IC50 in test [1] was not above 100 nM.

Turning to `CC(C)(C)[C@H](c1nc(-c2ccccc2)cn1Cc1ccccc1)N1C[C@H](CN)COCC1=O` [Compound 24, (6S)-6-(aminomethyl)-4-[(1R)-1-(1-benzyl-4-phenyl-1H-imidazol-2-yl)-2,2-dimethylpropyl]-1,4-oxazepan-3-one], the concentration for 50% growth inhibition (GI50) in test [2] and in test [4] was 100 to 1000 nM each time. For the same molecule, the half-inhibitory concentration (IC50) in test [1] is not above 100 nM.

Consider `C[C@@H]1O[C@H](CN)CN([C@@H](c2nc(-c3cccc(F)c3)cn2Cc2ccccc2)C(C)(C)C)C1=O` [Compound 14, (2S,6R)-6-(aminomethyl)-4-{(1R)-1-[1-benzyl-4-(3-fluorophenyl)-1H-imidazol-2-yl]-2,2-dimethylpropyl}-2-methylmorpholin-3-one], for which the concentration for 50% growth inhibition (GI50) in test [2], in test [3], in test [4] and in test [5] was more than 1000 nM throughout. The IC50 in test [1] was more than 1000 nM.

Regarding `CC(C)(C)[C@H](c1nc(-c2ccccc2)cn1Cc1ccccc1)N1C[C@H](CN)COC1=O` [Compound 4, (5S)-5-(aminomethyl)-3-[(1R)-1-(1-benzyl-4-phenyl-1H-imidazol-2-yl)-2,2-dimethylpropyl]-1,3-oxazinan-2-one], the GI50 in test [2] and in test [4] was more than 1000 nM throughout. Besides, the 50% inhibitory concentration (IC50) in test [1] was in the range of 100 to 1000 nM.

Consider `CC(C)(C)[C@H](c1nc(-c2cccc(F)c2)cn1Cc1cc(F)cc(F)c1)N1C[C@@H](CN)COCC1=O` [Compound 26, (6R)-6-(aminomethyl)-4-{(1R)-1-[1-(3,5-difluorobenzyl)-4-(3-fluorophenyl)-1H-imidazol-2-yl]-2,2-dimethylpropyl}-1,4-oxazepan-3-one], for which the concentration for 50% growth inhibition (GI50) in test [2], in test [4] and in test [5] was 100 to 1000 nM in each case. The IC50 in test [1] was not above 100 nM.

As to `CC(C)(C)[C@H](c1nc(-c2ccccc2)cn1Cc1ccccc1)N1C[C@@H](CN)COC1=O` [Compound 5, (5R)-5-(aminomethyl)-3-[(1R)-1-(1-benzyl-4-phenyl-1H-imidazol-2-yl)-2,2-dimethylpropyl]-1,3-oxazinan-2-one], the GI50 in test [2] and in test [4] was 100 to 1000 nM throughout. Moreover, the IC50 in test [1] is not above 100 nM.

In the case of `CC(C)(C)[C@H](c1nc(-c2ccccc2)cn1Cc1ccccc1)N1C[C@@H](CCN)OCC1=O` [Compound 10, (6R)-6-(2-aminoethyl)-4-[(1R)-1-(1-benzyl-4-phenyl-1H-imidazol-2-yl)-2,2-dimethylpropyl]morpholin-3-one], the IC50 in test [1] fell in the range of 100 to 1000 nM.

`CC(C)(C)[C@H](c1nc(-c2ccccc2)cn1Cc1ccccc1)N1C[C@@H](F)CNCC1=O` [Compound 32, (6S)-1-[(1R)-1-(1-benzyl-4-phenyl-1H-imidazol-2-yl)-2,2-dimethylpropyl]-6-fluoro-1,4-diazepan-2-one]: the GI50 in test [2] and in test [4] was more than 1000 nM throughout. In addition, the IC50 in test [1] was 100 to 1000 nM.

Take `CC(C)(C)[C@H](c1nc(-c2ccccc2)cn1Cc1ccccc1)N1C[C@H](CN)OCCC1=O` [Compound 22, (2S)-2-(aminomethyl)-4-[(1R)-1-(1-benzyl-4-phenyl-1H-imidazol-2-yl)-2,2-dimethylpropyl]-1,4-oxazepan-5-one]: the 50% growth inhibitory concentration (GI50) in test [2] and in test [4] was more than 1000 nM each time. For the same molecule, the half-maximal inhibitory concentration (IC50) in test [1] lay in the range of 100 to 1000 nM.

As for `CC(C)(C)[C@H](c1nc(-c2ccccc2)cn1Cc1ccccc1)N1C[C@@H](CN)N(S(C)(=O)=O)CCC1=O` [Compound 21, (2R)-2-(aminomethyl)-4-[(1R)-1-(1-benzyl-4-phenyl-1H-imidazol-2-yl)-2,2-dimethylpropyl]-1-(methylsulfonyl)-1,4-diazepan-5-one], the 50% growth inhibitory concentration (GI50) in test [2] is not above 100 nM; in test [4], more than 1000 nM. The half-maximal inhibitory concentration (IC50) in test [1] is not above 100 nM.
